According to ChEMBL document CHEMBL1201862, “PubChem BioAssay data set” (2004):
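Five concentrations, 48 hours, 96-well plates. GI50 is the concentration that inhibits growth by half.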 The source made the active and inactive calls. Rule as the data show it: active = GI50 up to about 1.1 µM and inactive = higher.

Columns and labels:
Experiment in all cases: NCI anticancer screen, dose series, 48 h
CCRF-CEM = tested on: CCRF-CEM
HT-29 = tested on: HT-29
IGROV-1 = tested on: IGROV-1
MDA-MB-231 = tested on: MDA-MB-231
MOLT-4 = tested on: MOLT-4
Malme-3M = tested on: Malme-3M
NCI-H226 = tested on: NCI-H226
OVCAR-3 = tested on: OVCAR-3
OVCAR-5 = tested on: OVCAR-5
SF-268 = tested on: SF-268
SF-295 = tested on: SF-295
SF-539 = tested on: SF-539
SK-MEL-2 = tested on: SK-MEL-2
SK-MEL-5 = tested on: SK-MEL-5
SNB-75 = tested on: SNB-75
SR = tested on: SR
TK-10 = tested on: TK-10
UACC-62 = tested on: UACC-62

C/C(=N\NC(=S)Nc1ccc(C)cc1)c1nc2cccnc2[nH]1
GI50 (CCRF-CEM): 0.452 µM (active)
GI50 (HT-29): 0.681 µM (active)
GI50 (IGROV-1): 2.31 µM (inactive)
GI50 (MDA-MB-231): 1.17 µM (inactive)
GI50 (MOLT-4): 1.27 µM (inactive)
GI50 (Malme-3M): 4.86 µM (inactive)
GI50 (NCI-H226): 1.78 µM (inactive)
GI50 (OVCAR-3): 0.483 µM (active)
GI50 (OVCAR-5): 1.95 µM (inactive)
GI50 (SF-268): 0.587 µM (active)
GI50 (SF-295): 3.07 µM (inactive)
GI50 (SF-539): 1.14 µM (inactive)
GI50 (SK-MEL-2): 10.8 µM (inactive)
GI50 (SK-MEL-5): 1.76 µM (inactive)
GI50 (SNB-75): 5.77 µM (inactive)
GI50 (SR): 0.849 µM (active)
GI50 (TK-10): 2.67 µM (inactive)
GI50 (UACC-62): 2.81 µM (inactive)

COc1ccc(N(C)S(=O)(=O)c2ccccc2)cc1
GI50 (CCRF-CEM): > 100 µM (inactive)
GI50 (HT-29): > 100 µM (inactive)
GI50 (IGROV-1): > 100 µM (inactive)
GI50 (MDA-MB-231): > 100 µM (inactive)
GI50 (MOLT-4): 29.4 µM (inactive)
GI50 (Malme-3M): > 100 µM (inactive)
GI50 (NCI-H226): > 100 µM (inactive)
GI50 (OVCAR-3): > 100 µM (inactive)
GI50 (OVCAR-5): > 100 µM (inactive)
GI50 (SF-268): > 100 µM (inactive)
GI50 (SF-295): > 100 µM (inactive)
GI50 (SF-539): > 100 µM (inactive)
GI50 (SK-MEL-2): > 100 µM (inactive)
GI50 (SK-MEL-5): 61.8 µM (inactive)
GI50 (SNB-75): > 100 µM (inactive)
GI50 (SR): 87.9 µM (inactive)
GI50 (TK-10): > 100 µM (inactive)
GI50 (UACC-62): 75 µM (inactive)

O=C1Nc2c(Cl)cc(Cl)cc2/C1=N/NC(=O)c1ccncc1
GI50 (CCRF-CEM): 29.4 µM (inactive)
GI50 (HT-29): 27.4 µM (inactive)
GI50 (IGROV-1): 22.9 µM (inactive)
GI50 (MDA-MB-231): 17.3 µM (inactive)
GI50 (MOLT-4): 25.2 µM (inactive)
GI50 (Malme-3M): 16.9 µM (inactive)
GI50 (NCI-H226): 47.2 µM (inactive)
GI50 (OVCAR-3): 15.5 µM (inactive)
GI50 (OVCAR-5): 61 µM (inactive)
GI50 (SF-295): 38.5 µM (inactive)
GI50 (SF-539): 21.6 µM (inactive)
GI50 (SK-MEL-2): 19 µM (inactive)
GI50 (SK-MEL-5): 17.9 µM (inactive)
GI50 (SNB-75): 46.3 µM (inactive)
GI50 (SR): 14.7 µM (inactive)
GI50 (TK-10): 73.1 µM (inactive)
GI50 (UACC-62): 17.3 µM (inactive)

Clc1ccccc1/C=C/c1ccnc2ccccc12
GI50 (CCRF-CEM): 20.5 µM (inactive)
GI50 (HT-29): 16 µM (inactive)
GI50 (IGROV-1): 15.8 µM (inactive)
GI50 (MDA-MB-231): 22.9 µM (inactive)
GI50 (Malme-3M): 19.5 µM (inactive)
GI50 (NCI-H226): 16.8 µM (inactive)
GI50 (OVCAR-3): 14.5 µM (inactive)
GI50 (OVCAR-5): 19.9 µM (inactive)
GI50 (SF-268): 18.9 µM (inactive)
GI50 (SF-295): 15.7 µM (inactive)
GI50 (SF-539): 18.4 µM (inactive)
GI50 (SK-MEL-2): 16.6 µM (inactive)
GI50 (SK-MEL-5): 15.1 µM (inactive)
GI50 (SNB-75): 15.6 µM (inactive)
GI50 (SR): 17 µM (inactive)
GI50 (TK-10): 18 µM (inactive)
GI50 (UACC-62): 15.2 µM (inactive)

Nc1nc(N)c(C2=CCNCC2)c(=O)[nH]1
GI50 (CCRF-CEM): > 100 µM (inactive)
GI50 (HT-29): > 100 µM (inactive)
GI50 (IGROV-1): > 100 µM (inactive)
GI50 (MDA-MB-231): > 100 µM (inactive)
GI50 (MOLT-4): > 100 µM (inactive)
GI50 (Malme-3M): > 100 µM (inactive)
GI50 (NCI-H226): > 100 µM (inactive)
GI50 (OVCAR-3): > 100 µM (inactive)
GI50 (OVCAR-5): > 100 µM (inactive)
GI50 (SF-268): > 100 µM (inactive)
GI50 (SF-295): > 100 µM (inactive)
GI50 (SF-539): > 100 µM (inactive)
GI50 (SK-MEL-2): > 100 µM (inactive)
GI50 (SK-MEL-5): > 100 µM (inactive)
GI50 (SNB-75): > 100 µM (inactive)
GI50 (SR): > 100 µM (inactive)
GI50 (UACC-62): > 100 µM (inactive)

COc1cc(/C=C/C(=O)O)ccc1O [FERULATE]
GI50 (CCRF-CEM): > 100 µM (inactive)
GI50 (HT-29): > 100 µM (inactive)
GI50 (IGROV-1): > 100 µM (inactive)
GI50 (MDA-MB-231): > 100 µM (inactive)
GI50 (MOLT-4): > 100 µM (inactive)
GI50 (Malme-3M): > 100 µM (inactive)
GI50 (NCI-H226): > 100 µM (inactive)
GI50 (OVCAR-3): > 100 µM (inactive)
GI50 (OVCAR-5): > 100 µM (inactive)
GI50 (SF-268): > 100 µM (inactive)
GI50 (SF-295): > 100 µM (inactive)
GI50 (SF-539): > 100 µM (inactive)
GI50 (SK-MEL-2): > 100 µM (inactive)
GI50 (SK-MEL-5): > 100 µM (inactive)
GI50 (SNB-75): > 100 µM (inactive)
GI50 (SR): > 100 µM (inactive)
GI50 (TK-10): > 100 µM (inactive)
